Measurements reported in ChEMBL document CHEMBL3856269, “Anti-inflammatory activity effect of 2-substituted-1,4,5,6-tetrahydrocyclopenta[b]pyrrole on TPA-induced skin inflammation in mice” (2016).
Calls of active or inactive are those of the source. No cut-off for these calls is given here.

Tests used:
Format in all cases: functional
Mus musculus [1] = assay: Anti-inflammatory activity in TPA-induced Balb/c mouse ear edema model assessed as reduction in TPA-induced ear edema at 0.75 uM administered topically 6 mins prior to TPA administration measured after 6 hrs relative to control; design: scale not given: the % may be the effect or the level left
Mus musculus [2] = assay: Potency index, ratio of compound to celecoxib potency for reduction in TPA-induced ear edema in Balb/c mouse
Mus musculus [3] = assay: Anti-inflammatory activity in Balb/c mouse assessed as reduction in TPA-induced hyperkeratosis at 0.75 uM administered topically 6 mins prior to TPA administration measured after 6 hrs by hematoxylin and eosin staining based microscopic analysis
Mus musculus [4] = assay: Anti-inflammatory activity in Balb/c mouse assessed as reduction in TPA-induced epidermal hyperplasia at 0.75 uM administered topically 6 mins prior to TPA administration measured after 6 hrs by hematoxylin and eosin staining based microscopic analysis
Mus musculus [5] = assay: Anti-inflammatory activity in Balb/c mouse assessed as reduction in TPA-induced dense dermal leukocyte infiltration at 0.75 uM administered topically 6 mins prior to TPA administration measured after 6 hrs by hematoxylin and eosin staining based microscopic analysis
Mus musculus [6] = assay: In vivo inhibition of IKK-mediated NF-kB activation in Balb/c mouse assessed as decrease in TPA-induced IL-1beta expression at 0.75 uM administered topically 6 mins prior to TPA administration measured after 6 hrs by immunohistochemical analysis
Mus musculus [7] = assay: In vivo inhibition of IKK-mediated NF-kB activation in Balb/c mouse assessed as decrease in TPA-induced IL-6 expression at 0.75 uM administered topically 6 mins prior to TPA administration measured after 6 hrs by immunohistochemical analysis
Mus musculus [8] = assay: In vivo inhibition of IKK-mediated NF-kB activation in Balb/c mouse assessed as decrease in TPA-induced TNFalpha expression at 0.75 uM administered topically 6 mins prior to TPA administration measured after 6 hrs by immunohistochemical analysis
Mus musculus [9] = assay: In vivo inhibition of IKK-mediated NF-kB activation in Balb/c mouse assessed as decrease in TPA-induced COX2 expression at 0.75 uM administered topically 6 mins prior to TPA administration measured after 6 hrs by immunohistochemical analysis
Mus musculus [10] = assay: In vivo inhibition of IKK-mediated NF-kB activation in Balb/c mouse assessed as decrease in TPA-induced p65 expression at 0.75 uM administered topically 6 mins prior to TPA administration measured after 6 hrs by immunohistochemical analysis
Mus musculus [11] = assay: In vivo inhibition of IKK-mediated NF-kB activation in Balb/c mouse assessed as decrease in TPA-induced phospho-Ser536 p65 expression at 0.75 uM administered topically 6 mins prior to TPA administration measured after 6 hrs by immunohistochemical analysis
Mus musculus [12] = assay: In vivo inhibition of IKK-mediated NF-kB activation in Balb/c mouse assessed as decrease in TPA-induced phosphorylation of IKBalpha at Ser-32 residue at 0.75 uM administered topically 6 mins prior to TPA administration measured after 6 hrs by immunohistochemical analysis
Mus musculus [13] = assay: In vivo inhibition of IKK activation in Balb/c mouse at 0.75 uM administered topically 6 mins prior to TPA administration measured after 6 hrs by immunohistochemical analysis

SMILES	Activity (Mus musculus [1]) [%]	other results
COCCCn1c(-c2ccccc2)cc2c1CCC2	1.46	
c1ccc(-c2cc3c(n2C2CCCCC2)CCC3)cc1	19.02	
CCCCn1c(-c2ccccc2)cc2c1CCC2	-9.17	
O=[N+]([O-])c1ccc(-n2c(-c3ccccc3)cc3c2CCC3)cc1	-12.9	
CC(C)Cn1c(-c2ccccc2)cc2c1CCC2	6.91	
CC(C)(C)c1cc2c([nH]1)CCC2	9.71	
C#CCn1c(-c2ccccc2)cc2c1CCC2	8.77	
c1ccc(-c2cc3c(n2C2CC2)CCC3)cc1	20.88	
COc1ccc(Cn2c(-c3ccccc3)cc3c2CCC3)cc1	2.93	
Cc1ccc(-c2cc3c(n2-c2ccccc2)CCC3)cc1	0.53	
c1ccc(-c2cc3c(n2-c2ccccc2)CCC3)cc1	-0.93	
C#CCn1c(-c2ccc(C)cc2)cc2c1CCC2	4.92	
COc1ccc(Cn2c(-c3ccc(C)cc3)cc3c2CCC3)cc1	7.71	
c1ccc(-c2cc3c([nH]2)CCC3)cc1	10.23	
c1ccc(Cn2c(-c3ccccc3)cc3c2CCC3)cc1	25.66	
CCn1c(-c2ccccc2)cc2c1CCC2	13.56	
CCCn1c(-c2ccccc2)cc2c1CCC2	57.31	Ratio (Mus musculus [2]): 3.2; Activity (Mus musculus [3]): Active; Activity (Mus musculus [4]): Active; Activity (Mus musculus [5]): Active; inhibition (Mus musculus [6]): Active; inhibition (Mus musculus [7]): Active; inhibition (Mus musculus [8]): Active; inhibition (Mus musculus [9]): Active; inhibition (Mus musculus [10]): Active; inhibition (Mus musculus [11]): Active; inhibition (Mus musculus [12]): Active; inhibition (Mus musculus [13]): Active
Clc1ccc(-n2c(-c3ccccc3)cc3c2CCC3)cc1	19.41	
c1ccc(-c2cc3c(n2-c2ccccc2)CC(c2ccccc2)C3)cc1 (configuration not stated)	16.09	
Brc1ccc(-n2c(-c3ccccc3)cc3c2CCC3)cc1	15.96	
Cc1ccc(-c2cc(C(F)(F)F)nn2-c2ccc(S(N)(=O)=O)cc2)cc1 [CELECOXIB]	17.95	Activity (Mus musculus [3]): Active; Activity (Mus musculus [4]): Active; Activity (Mus musculus [5]): Active; inhibition (Mus musculus [6]): Active; inhibition (Mus musculus [7]): Active; inhibition (Mus musculus [8]): Active; inhibition (Mus musculus [9]): Active; inhibition (Mus musculus [10]): Active; inhibition (Mus musculus [11]): Active
Clc1ccccc1-n1c(-c2ccccc2)cc2c1CCC2	-6.78	
c1ccc(CCCn2c(-c3ccccc3)cc3c2CCC3)cc1	-13.56	
COc1ccc(-c2cc3c([nH]2)CCC3)cc1	17.55	
CC(C)(C)c1cc2c(n1-c1ccccc1)CCC2	-0.53	
c1ccc(CCn2c(-c3ccccc3)cc3c2CCC3)cc1	-1.86	
